“Also recorded” adds a separate entry of the source. Counter-ions that a name gives are not always drawn. Like-named read-outs stand apart in the source and are kept apart here.
Test system: pediatric patients with recurrent or refractory solid and CNS tumors
[1] = cycle 1, Dose Level 2 (N=5), 100 mg/m^2
[2] = cycle 1, Dose Level 3 (N=4), 125 mg/m^2
[3] = cycle 1, Dose Level 4 (N=10), 150 mg/m^2
[4] = cycle 1, drug-related, all dose levels, 25 evaluable

COc1cccc(OCCCN)c1-c1cc(Nc2cnc(C#N)cn2)n[nH]1 [prexasertib, Prexasertib mesylate monohydrate]
Headache, ≥ Grade 3 [1]: 0 (0) No. (%)
Hypokalemia, All [1]: 2 (40) No. (%)
Hypokalemia, ≥ Grade 3 [1]: 0 (0) No. (%)
Hypophosphatemia, All [1]: 0 (0) No. (%)
Hypophosphatemia, ≥ Grade 3 [1]: 0 (0) No. (%)
Infusion-related reaction, All [1]: 1 (20) No. (%)
Infusion-related reaction, ≥ Grade 3 [1]: 0 (0) No. (%)
Lymphocyte count decreased, All [1]: 2 (40) No. (%)
Lymphocyte count decreased, ≥ Grade 3 [1]: 0 (0) No. (%)
Myalgia, All [1]: 1 (20) No. (%)
Myalgia, ≥ Grade 3 [1]: 0 (0) No. (%)
Nausea, All [1]: 1 (20) No. (%)
Nausea, ≥ Grade 3 [1]: 0 (0) No. (%)
Neutrophil count decreased, All [1]: 5 (100) No. (%)
Neutrophil count decreased, ≥ Grade 3 [1]: 5 (100) No. (%)
Platelet count decreased, All [1]: 5 (100) No. (%)
Platelet count decreased, ≥ Grade 3 [1]: 2 (40) No. (%)
Vomiting, All [1]: 1 (20) No. (%)
Vomiting, ≥ Grade 3 [1]: 0 (0) No. (%)
White blood cell decreased, All [1]: 5 (100) No. (%)
White blood cell decreased, ≥ Grade 3 [1]: 3 (60) No. (%)
Alanine aminotransferase increased, All [2]: 0 (0) No. (%)
Alanine aminotransferase increased, ≥ Grade 3 [2]: 0 (0) No. (%)
Anemia, All [2]: 3 (75) No. (%)
Anemia, ≥ Grade 3 [2]: 1 (25) No. (%)
Anorexia, All [2]: 0 (0) No. (%)
Anorexia, ≥ Grade 3 [2]: 0 (0) No. (%)
Aspartate aminotransferase increased, All [2]: 0 (0) No. (%)
Aspartate aminotransferase increased, ≥ Grade 3 [2]: 0 (0) No. (%)
Diarrhea, All [2]: 0 (0) No. (%)
Diarrhea, ≥ Grade 3 [2]: 0 (0) No. (%)
Electrocardiogram QT corrected interval prolonged, All [2]: 2 (50) No. (%)
Electrocardiogram QT corrected interval prolonged, ≥ Grade 3 [2]: 0 (0) No. (%)
Fatigue, All [2]: 2 (50) No. (%)
Fatigue, ≥ Grade 3 [2]: 0 (0) No. (%)
Headache, All [2]: 1 (25) No. (%)
Headache, ≥ Grade 3 [2]: 0 (0) No. (%)
Hypokalemia, All [2]: 1 (25) No. (%)
Hypokalemia, ≥ Grade 3 [2]: 0 (0) No. (%)
Hypophosphatemia, All [2]: 0 (0) No. (%)
Hypophosphatemia, ≥ Grade 3 [2]: 0 (0) No. (%)
Infusion-related reaction, All [2]: 0 (0) No. (%)
Infusion-related reaction, ≥ Grade 3 [2]: 0 (0) No. (%)
Lymphocyte count decreased, All [2]: 2 (50) No. (%)
Lymphocyte count decreased, ≥ Grade 3 [2]: 2 (50) No. (%)
Myalgia, All [2]: 0 (0) No. (%)
Myalgia, ≥ Grade 3 [2]: 0 (0) No. (%)
Nausea, All [2]: 0 (0) No. (%)
Nausea, ≥ Grade 3 [2]: 0 (0) No. (%)
Neutrophil count decreased, All [2]: 4 (100) No. (%)
Neutrophil count decreased, ≥ Grade 3 [2]: 4 (100) No. (%)
Platelet count decreased, All [2]: 4 (100) No. (%)
Platelet count decreased, ≥ Grade 3 [2]: 2 (50) No. (%)
Vomiting, All [2]: 0 (0) No. (%)
Vomiting, ≥ Grade 3 [2]: 0 (0) No. (%)
White blood cell decreased, All [2]: 4 (100) No. (%)
White blood cell decreased, ≥ Grade 3 [2]: 3 (75) No. (%)
Alanine aminotransferase increased, All [3]: 1 (10) No. (%)
Alanine aminotransferase increased, ≥ Grade 3 [3]: 0 (0) No. (%)
Anemia, All [3]: 8 (80) No. (%)
Anemia, ≥ Grade 3 [3]: 1 (10) No. (%)
Anorexia, All [3]: 1 (10) No. (%)
Anorexia, ≥ Grade 3 [3]: 0 (0) No. (%)
Aspartate aminotransferase increased, All [3]: 1 (10) No. (%)
Aspartate aminotransferase increased, ≥ Grade 3 [3]: 0 (0) No. (%)
Diarrhea, All [3]: 1 (10) No. (%)
Diarrhea, ≥ Grade 3 [3]: 0 (0) No. (%)
Electrocardiogram QT corrected interval prolonged, All [3]: 4 (40) No. (%)
Electrocardiogram QT corrected interval prolonged, ≥ Grade 3 [3]: 0 (0) No. (%)
Fatigue, All [3]: 2 (20) No. (%)
Fatigue, ≥ Grade 3 [3]: 0 (0) No. (%)
Headache, All [3]: 2 (20) No. (%)
Headache, ≥ Grade 3 [3]: 0 (0) No. (%)
Hypokalemia, All [3]: 2 (20) No. (%)
Hypokalemia, ≥ Grade 3 [3]: 0 (0) No. (%)
Hypophosphatemia, All [3]: 3 (30) No. (%)
Hypophosphatemia, ≥ Grade 3 [3]: 0 (0) No. (%)
Infusion-related reaction, All [3]: 1 (10) No. (%)
Infusion-related reaction, ≥ Grade 3 [3]: 0 (0) No. (%)
Lymphocyte count decreased, All [3]: 5 (50) No. (%)
Lymphocyte count decreased, ≥ Grade 3 [3]: 2 (20) No. (%)
Myalgia, All [3]: 2 (20) No. (%)
Myalgia, ≥ Grade 3 [3]: 0 (0) No. (%)
Nausea, All [3]: 3 (30) No. (%)
Nausea, ≥ Grade 3 [3]: 0 (0) No. (%)
Neutrophil count decreased, All [3]: 10 (100) No. (%)
Neutrophil count decreased, ≥ Grade 3 [3]: 10 (100) No. (%)
Platelet count decreased, All [3]: 8 (80) No. (%)
Platelet count decreased, ≥ Grade 3 [3]: 1 (10) No. (%)
Vomiting, All [3]: 4 (40) No. (%)
Vomiting, ≥ Grade 3 [3]: 0 (0) No. (%)
White blood cell decreased, All [3]: 10 (100) No. (%)
White blood cell decreased, ≥ Grade 3 [3]: 7 (70) No. (%)
grade 3/4 anemia, patients [4]: 12%
grade 3/4 leukopenia, patients [4]: 68%
grade 3/4 lymphopenia, patients [4]: 24%
grade 3/4 neutropenia, patients [4]: 100%
grade 3/4 thrombocytopenia, patients [4]: 24%
dose-limiting toxicities (DLTs) (cycle 1 or later, all dose levels 80-150 mg/m^2): no cycle 1 or later dose-limiting toxicities; also recorded: No DLTs

Reference: PMC9090141 (Pediatric blood & cancer, 2021)
